Test results as given in patent US20200276181A1, “THIENOISOQUINOLINES AND THEIR DERIVATIVES FOR TARGETING TUBULIN, CH-TOG, AURORA A KINASE, TPX2, CDK5RAP2 AND/OR ASPM” (VALORBEC, SEC, priority 2017, published 2020).

What was measured:
Type in all cases: cell-based
[1] = test system: HFF1 cells; experiment: Spindle morphology, fixed cells stained for tubulin and DAPI; details: 300 nM
Method: FIG. 1A) is a line graph showing changes in the percentage of viable HFF-1, HeLa, A549 and HCT 116 cells after treatment with a range of C75 concentrations for 3 population doubling times (N=3). […] There were more rounded mitotic cells after C75 treatment in comparison to the control. FIG. 1C) is a line graph showing the percentage of HeLa and HFF1 cells in mitosis after treatment with various concentrations of C75 for 8 hours. The bars indicate standard deviation. FIG. 1D) is a series of images showing cells that were fixed and co-stained for tubulin (microtubules) and DAPI (DNA). Treatment of HeLa cells with 300 nM C75 caused the mitotic spindles to be disorganized, while they were not affected in HFF1 cells. […] The scale bar for the cells is 10 μm. […] FIG. 1F) is a cartoon schematic showing the key features of a metaphase cell.
The images in FIG. 1B) show fields of view of HeLa cells treated with (dimethyl sulfoxide) DMSO or 500 nM of C75. […] Higher concentrations of C75 caused spindle phenotypes in HFF1 cells, but they were quite different in comparison to HeLa cells (FIG. 1D).

[2] = biological target: T1, GFP-tagged ch-TOG (CKAP5) (Homo sapiens, UniProt Q14008); experiment: GFP-tagged ch-TOG localization; details: mitotic HeLa cells vs non-treated
T1 construct: expressed in transfected cells; host or cells: HeLa
T1 sequence (Q14008 whole entry): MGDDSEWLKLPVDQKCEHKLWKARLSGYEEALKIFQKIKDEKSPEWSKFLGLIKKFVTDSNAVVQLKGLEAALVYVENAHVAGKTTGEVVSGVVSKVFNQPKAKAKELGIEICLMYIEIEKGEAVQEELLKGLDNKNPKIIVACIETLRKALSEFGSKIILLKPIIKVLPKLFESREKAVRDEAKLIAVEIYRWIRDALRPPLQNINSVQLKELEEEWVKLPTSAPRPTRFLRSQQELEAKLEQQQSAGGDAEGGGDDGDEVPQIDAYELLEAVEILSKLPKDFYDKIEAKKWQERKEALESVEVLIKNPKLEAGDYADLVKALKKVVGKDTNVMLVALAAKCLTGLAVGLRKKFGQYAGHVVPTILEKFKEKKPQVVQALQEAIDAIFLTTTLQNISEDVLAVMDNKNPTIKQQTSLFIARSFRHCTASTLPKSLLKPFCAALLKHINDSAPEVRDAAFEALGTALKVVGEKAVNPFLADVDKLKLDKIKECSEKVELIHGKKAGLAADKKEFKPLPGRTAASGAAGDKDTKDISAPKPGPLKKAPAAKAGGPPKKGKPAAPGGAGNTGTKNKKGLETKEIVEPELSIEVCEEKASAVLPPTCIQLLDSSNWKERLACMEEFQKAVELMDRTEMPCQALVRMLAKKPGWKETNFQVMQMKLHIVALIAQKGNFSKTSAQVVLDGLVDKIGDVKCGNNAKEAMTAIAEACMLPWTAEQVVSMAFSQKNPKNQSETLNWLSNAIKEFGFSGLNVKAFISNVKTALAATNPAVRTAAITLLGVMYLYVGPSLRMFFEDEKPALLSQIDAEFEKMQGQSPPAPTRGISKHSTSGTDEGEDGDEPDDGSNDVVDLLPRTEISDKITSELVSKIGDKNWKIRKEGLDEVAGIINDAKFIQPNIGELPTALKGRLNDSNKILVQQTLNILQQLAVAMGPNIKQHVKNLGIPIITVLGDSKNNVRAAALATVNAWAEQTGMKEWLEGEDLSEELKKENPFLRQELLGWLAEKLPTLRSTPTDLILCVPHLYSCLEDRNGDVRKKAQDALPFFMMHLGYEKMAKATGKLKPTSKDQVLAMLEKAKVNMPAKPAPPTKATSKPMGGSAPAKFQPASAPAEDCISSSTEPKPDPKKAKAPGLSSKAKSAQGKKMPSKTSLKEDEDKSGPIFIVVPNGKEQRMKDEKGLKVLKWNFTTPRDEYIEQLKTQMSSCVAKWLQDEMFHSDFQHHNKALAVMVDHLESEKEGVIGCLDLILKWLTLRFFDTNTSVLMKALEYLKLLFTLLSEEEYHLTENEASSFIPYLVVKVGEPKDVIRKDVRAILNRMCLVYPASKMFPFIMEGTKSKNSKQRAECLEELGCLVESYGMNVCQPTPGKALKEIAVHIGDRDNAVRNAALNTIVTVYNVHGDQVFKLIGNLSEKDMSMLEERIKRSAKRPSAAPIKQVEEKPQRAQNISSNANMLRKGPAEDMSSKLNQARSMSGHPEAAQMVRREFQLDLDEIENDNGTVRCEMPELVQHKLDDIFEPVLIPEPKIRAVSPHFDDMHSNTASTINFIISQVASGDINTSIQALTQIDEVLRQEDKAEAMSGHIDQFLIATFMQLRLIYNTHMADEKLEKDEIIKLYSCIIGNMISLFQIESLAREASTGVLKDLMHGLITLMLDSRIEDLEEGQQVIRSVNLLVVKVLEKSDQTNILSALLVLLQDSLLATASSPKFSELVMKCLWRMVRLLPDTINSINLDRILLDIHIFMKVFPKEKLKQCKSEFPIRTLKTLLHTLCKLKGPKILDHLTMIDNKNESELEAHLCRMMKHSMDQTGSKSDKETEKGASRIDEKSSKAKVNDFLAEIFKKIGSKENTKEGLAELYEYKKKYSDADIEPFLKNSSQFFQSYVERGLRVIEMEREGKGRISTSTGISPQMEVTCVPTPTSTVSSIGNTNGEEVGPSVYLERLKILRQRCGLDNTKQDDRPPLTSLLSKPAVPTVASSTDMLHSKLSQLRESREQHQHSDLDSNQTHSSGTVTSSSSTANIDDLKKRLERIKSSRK
Method: As shown in FIG. 2L and FIG. 6, in HeLa cells expressing SiR-tubulin or GFP-tagged ch-TOG (CKAP5), which localizes to centrosomes, the addition of 100-300 nM of C75 causes the spindle poles to collapse together in metaphase cells within 1-2 minutes. The spindles recover, but become uneven or multipolar.
ch-TOG contains multiple TOG domains that bind to tubulin dimers, and a microtubule-binding domain that binds to the microtubule lattice. If C75 were to bind and inhibit one or more of the TOG domains, this would shift its affinity onto microtubules, while inhibiting the microtubule domain would cause ch-TOG to become cytosolic.

[3] = test system: HCT 116 cells; experiment: Spindle phenotypes, paclitaxel and C75 combination; details: 7 hours, at 100 and 200 nM
Method: FIG. 3A) is a line graph showing cytotoxicity of HeLa cells after treatment with varying concentrations of C75+/−a subthreshold dose of paclitaxel (Taxol™; 3 nM). The IC50 is shown by the dotted line. Bars show standard deviation. FIG. 3B) is a line graph showing the percentage of mitotic HeLa or HFF1 cells treated with a range of paclitaxel concentrations+/−C75 as indicated. The bars indicate standard deviation. FIG. 3C) is a series of bar graphs showing the proportion of HCT 116 cells with bipolar aligned (grey), bipolar misaligned (dark grey), multipolar/fragmented (light grey, top portion of each bar) or monopolar (black) spindles 7 hours after treatment with control (DMSO), varying concentrations of paclitaxel or C75, or both as indicated (n=691; N=3). The bars show standard deviation. The combination treatments were compared to paclitaxel and C75 on their own by calculating ratios varying from the predicted ratio, and found to synergize at 100 and 200 nM. FIG. 3D) is bar graph showing the average distance between centrosome fragments in HCT116 cells after treatments as shown. While centrosome fragments moved closer together with increased concentrations of paclitaxel, they moved further apart with increased concentrations of C75 (n=105; N=3). […]

In the case of `COc1ccc(S(=O)(=O)N2Cc3ccccc3-c3sc(Br)cc32)cc1` [Compound C75], the mitotic spindle morphology [1] is reported as “not affected”, the “ch-TOG localization after treatment” value [2] is reported as “enriched at the centrosomes” and the “combination with paclitaxel vs each alone, spindle phenotypes” value [3] is reported as “synergize”.
